Test results published in patent US9376436B2, “2-(pyridin-2yl)-1, 7-diaza-spiro [4.4] nonane-6-one compound as voltage-gated sodium channels modulators” (CONVERGENCE PHARMACEUTICALS LIMITED, priority 2011, dated 2016).
Counter-ions that a name gives are not always drawn. Like-named read-outs stand apart in the source and are kept apart here.

Molecular target: T1, hNaV1.7 (Homo sapiens, UniProt Q15858)
T1 construct: expressed in transfected cells; host or cells: HEK293
Test: QPatch NaV1.7 assay (whole-cell patch clamp, QPatch16x)
Format: cell-based
Settings: HEK293-hNaV1.7 cells
Procedure: The compounds of the invention were tested in a QPatch NaV1.7 assay.
HEK293-hNaV1.7 cells were grown in DMEM-F12+10% FBS culture media at 37° C. At a confluency of 50-70% cells were dissociated from culture flasks & triturated to ensure unicellular cell suspension; cell density was measured & adjusted to 2-3×10^6 cells/ml. Recordings were obtained using QPatch16x. The external solution was (in mM): NaCl, 128; KCl, 5; MgCl2, 2; CaCl2, 2; Glucose, 30; HEPES, 15; pH 7.3, 305-315 mOsm. Following seal formation and whole-cell access using internal solution (containing in mM: CsF, 135; EGTA/CsOH, 1/5; HEPES 10; NaCl, 10; pH 7.3, 310-320 mOsM), voltage pulse protocols were applied. Initially a steady state inactivation voltage protocol was used to determine the half-maximal voltage for steady state inactivation (V1/2 SSI). Two holding voltages were used to determine test drug inhibition: −90 mV, where most of the channels are in a closed state; and V1/2 SSI, where half of the channels are inactivated. Currents were elicited […] by stepping to a membrane potential of 0 mV for 20 ms. Four-point cumulative concentration responses were derived by determining the peak current amplitude at each concentration of test drug over 120 second application. Curves were fitted with the Hill equation yielding pIC50 values at −90 mV and V1/2 SSI holding potentials.

[1] = holding voltage V1/2 SSI (half of channels inactivated), read-out: QP Nav1.7 SSI vhalf pIC50 (converted)
[2] = holding voltage −90 mV (most channels closed), read-out: QP Nav1.7 −90 mV pIC50 (converted)

T1 sequence (Q15858 whole entry): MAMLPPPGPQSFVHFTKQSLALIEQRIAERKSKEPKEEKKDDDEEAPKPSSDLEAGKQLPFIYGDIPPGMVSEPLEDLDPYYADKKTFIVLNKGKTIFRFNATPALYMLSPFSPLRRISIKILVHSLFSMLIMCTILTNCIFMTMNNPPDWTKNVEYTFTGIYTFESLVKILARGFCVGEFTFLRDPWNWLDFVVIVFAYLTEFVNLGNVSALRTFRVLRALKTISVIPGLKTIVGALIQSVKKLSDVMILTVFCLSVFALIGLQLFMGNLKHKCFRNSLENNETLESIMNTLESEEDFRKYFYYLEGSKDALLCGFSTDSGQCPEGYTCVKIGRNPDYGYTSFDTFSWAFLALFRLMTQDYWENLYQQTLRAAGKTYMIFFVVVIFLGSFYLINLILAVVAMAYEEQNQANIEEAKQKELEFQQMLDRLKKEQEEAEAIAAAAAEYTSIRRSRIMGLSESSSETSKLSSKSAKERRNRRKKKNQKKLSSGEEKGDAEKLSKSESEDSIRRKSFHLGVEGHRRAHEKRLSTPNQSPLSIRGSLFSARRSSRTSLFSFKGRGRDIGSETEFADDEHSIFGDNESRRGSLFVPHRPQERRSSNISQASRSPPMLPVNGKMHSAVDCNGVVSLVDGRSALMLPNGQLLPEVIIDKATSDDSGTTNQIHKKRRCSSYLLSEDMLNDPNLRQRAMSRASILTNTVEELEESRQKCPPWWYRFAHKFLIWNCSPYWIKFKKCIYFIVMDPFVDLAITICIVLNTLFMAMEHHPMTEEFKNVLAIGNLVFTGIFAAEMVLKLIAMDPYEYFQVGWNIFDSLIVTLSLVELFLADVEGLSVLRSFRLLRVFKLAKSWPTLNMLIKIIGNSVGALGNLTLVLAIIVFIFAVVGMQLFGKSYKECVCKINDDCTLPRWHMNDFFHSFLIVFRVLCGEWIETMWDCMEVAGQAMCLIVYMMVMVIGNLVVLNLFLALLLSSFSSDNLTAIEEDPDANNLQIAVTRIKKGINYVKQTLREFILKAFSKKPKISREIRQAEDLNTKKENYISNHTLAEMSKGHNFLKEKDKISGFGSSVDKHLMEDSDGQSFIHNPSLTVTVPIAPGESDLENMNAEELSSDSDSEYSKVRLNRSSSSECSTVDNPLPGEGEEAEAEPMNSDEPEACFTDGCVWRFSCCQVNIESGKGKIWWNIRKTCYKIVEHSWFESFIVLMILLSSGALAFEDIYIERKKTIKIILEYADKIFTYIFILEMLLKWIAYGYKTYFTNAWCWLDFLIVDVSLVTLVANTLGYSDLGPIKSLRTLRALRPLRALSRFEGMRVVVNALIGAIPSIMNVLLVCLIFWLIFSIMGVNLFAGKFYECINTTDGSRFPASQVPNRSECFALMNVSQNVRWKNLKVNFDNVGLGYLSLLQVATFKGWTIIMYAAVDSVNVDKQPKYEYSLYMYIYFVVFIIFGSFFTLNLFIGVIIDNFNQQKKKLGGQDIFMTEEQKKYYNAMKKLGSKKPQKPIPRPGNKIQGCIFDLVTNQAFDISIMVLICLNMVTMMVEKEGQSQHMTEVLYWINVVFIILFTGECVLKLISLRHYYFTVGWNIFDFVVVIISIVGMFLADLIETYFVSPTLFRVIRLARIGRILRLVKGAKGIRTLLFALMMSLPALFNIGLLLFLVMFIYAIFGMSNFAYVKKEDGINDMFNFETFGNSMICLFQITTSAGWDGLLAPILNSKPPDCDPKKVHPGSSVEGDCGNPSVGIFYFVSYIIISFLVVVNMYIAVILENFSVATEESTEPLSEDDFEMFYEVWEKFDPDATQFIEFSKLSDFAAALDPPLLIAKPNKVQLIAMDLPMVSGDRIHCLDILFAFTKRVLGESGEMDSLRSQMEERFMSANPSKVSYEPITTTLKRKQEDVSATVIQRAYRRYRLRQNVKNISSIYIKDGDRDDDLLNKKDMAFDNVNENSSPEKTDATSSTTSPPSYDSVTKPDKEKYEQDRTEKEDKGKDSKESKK

| IC50 [1] [µM] | IC50 [2] [µM] | SMILES |
| --- | --- | --- |
| 398 | 1000 | Cc1cc(-c2cc(C(F)(F)F)ccc2C(N)=O)cc([C@H]2CC[C@@]3(CCN(C)C3=O)N2)n1 [Example 24, 2-[2-Methyl-6-[(2R,5S)-7-methyl-6-oxo-1,7-diazaspiro[4.4]nonan-2-yl]-4-pyridyl]-4-(trifluoromethyl)benzamide hydrochloride] |
| 1580 | – | Cc1cc(-c2cc(C(F)(F)F)ccc2C(N)=O)cc([C@@H]2CC[C@@]3(CCN(C)C3=O)N2)n1 [Example 25, 2-[2-Methyl-6-[(2S,5S)-7-methyl-6-oxo-1,7-diazaspiro[4.4]nonan-2-yl]-4-pyridyl]-4-(trifluoromethyl)benzamide hydrochloride] |
| 794 | – | Cc1cc(-c2cc(C(F)(F)F)ccc2C(N)=O)cc([C@H]2CC[C@]3(CCN(C)C3=O)N2)n1 [Example 26, 2-[2-Methyl-6-[(2R,5R)-7-methyl-6-oxo-1,7-diazaspiro[4.4]nonan-2-yl]-4-pyridyl]-4-(trifluoromethyl)benzamide hydrochloride] |
| 39800 | – | Cc1cc(-c2cc(C(F)(F)F)ccc2C(N)=O)cc([C@@H]2CC[C@]3(CCN(C)C3=O)N2)n1 [Example 27, 2-[2-Methyl-6-[(2S,5R)-7-methyl-6-oxo-1,7-diazaspiro[4.4]nonan-2-yl]-4-pyridyl]-4-(trifluoromethyl)benzamide hydrochloride] |
| 5.01 | 31.6 | Cc1cc(-c2ccc(C(F)(F)F)cc2)cc([C@H]2CC[C@@]3(CCN(C)C3=O)N2)n1 [Example 28, (2R,5S)-7-Methyl-2-[6-methyl-4-[4-(trifluoromethyl)phenyl]-2-pyridyl]-1,7-diazaspiro[4.4]nonan-6-one hydrochloride] |
| 20 | 126 | Cc1cc(-c2ccc(C(F)(F)F)cc2)cc([C@@H]2CC[C@@]3(CCN(C)C3=O)N2)n1 [Example 29, (2S,5S)-7-Methyl-2-[6-methyl-4-[4-(trifluoromethyl)phenyl]-2-pyridyl]-1,7-diazaspiro[4.4]nonan-6-one hydrochloride] |
| 5.01 | 39.8 | Cc1cc(-c2ccc(C(F)(F)F)cc2)cc([C@@H]2CC[C@]3(CCN(C)C3=O)N2)n1 [Example 30, (2S,5R)-7-Methyl-2-[6-methyl-4-[4-(trifluoromethyl)phenyl]-2-pyridyl]-1,7-diazaspiro[4.4]nonan-6-one hydrochloride] |
| 20 | 79.4 | Cc1cc(-c2ccc(C(F)(F)F)cc2)cc([C@H]2CC[C@]3(CCN(C)C3=O)N2)n1 [Example 31, (2R,5R)-7-Methyl-2-[6-methyl-4-[4-(trifluoromethyl)phenyl]-2-pyridyl]-1,7-diazaspiro[4.4]nonan-6-one hydrochloride] |
| 39.8 | 251 | CN1CC[C@@]2(CC[C@H](c3cc(-c4ccccc4F)ccn3)N2)C1=O [Example 32, (2R,5S)-2-[4-(2-Fluoro-phenyl)-pyridin-2-yl]-7-methyl-1,7-diaza-spiro[4.4]nonan-6-one hydrochloride] |
| 39.8 | 126 | CN1CC[C@@]2(CC[C@@H](c3cc(-c4ccccc4F)ccn3)N2)C1=O [Example 33, (2S,5S)-2-[4-(2-Fluoro-phenyl)-pyridin-2-yl]-7-methyl-1,7-diaza-spiro[4.4]nonan-6-one hydrochloride] |
| 158 | 251 | CN1CC[C@]2(CC[C@@H](c3cc(-c4ccccc4F)ccn3)N2)C1=O [Example 34, (2S,5R)-2-[4-(2-Fluoro-phenyl)-pyridin-2-yl]-7-methyl-1,7-diaza-spiro[4.4]nonan-6-one hydrochloride] |
| 100 | 398 | CN1CC[C@]2(CC[C@H](c3cc(-c4ccccc4F)ccn3)N2)C1=O [Example 35, (2R,5R)-2-[4-(2-Fluoro-phenyl)-pyridin-2-yl]-7-methyl-1,7-diaza-spiro[4.4]nonan-6-one hydrochloride] |
| 0.794 | 20 | O=C1NCC[C@@]12CC[C@@H](c1cc(-c3ccc(C(F)(F)F)cc3)ccn1)N2 [Example 36, (2S,5S)-2-[4-[4-(Trifluoromethyl)phenyl]-2-pyridyl]-1,7-diazaspiro[4.4]nonan-6-one hydrochloride] |
| 0.794 | 25.1 | O=C1NCC[C@@]12CC[C@H](c1cc(-c3ccc(C(F)(F)F)cc3)ccn1)N2 [Example 37, (2R,5S)-2-[4-[4-(Trifluoromethyl)phenyl]-2-pyridyl]-1,7-diazaspiro[4.4]nonan-6-one hydrochloride] |
| 7.94 | 63.1 | O=C1NCC[C@@]12CC[C@@H](c1cc(-c3ccc(C(F)(F)F)cc3F)ccn1)N2 [Example 38, (2S,5S)-2-[4-[2-Fluoro-4-(trifluoro-methyl)phenyl]-2-pyridyl]-1,7-diazaspiro[4.4]nonan-6-one hydrochloride] |
| 20 | 79.4 | O=C1NCC[C@@]12CC[C@H](c1cc(-c3ccc(C(F)(F)F)cc3F)ccn1)N2 [Example 39, (2R,5S)-2-[4-[2-Fluoro-4-(trifluoro-methyl)phenyl]-2-pyridyl]-1,7-diazaspiro[4.4]nonan-6-one hydrochloride] |
| 1.58 | 50.1 | Cc1cnc([C@@H]2CC[C@@]3(CCN(C)C3=O)N2)cc1-c1ccc(C(F)(F)F)cc1 [Example 40, (2S,5S)-7-Methyl-2-[5-methyl-4-[4-(trifluoromethyl)phenyl]-2-pyridyl]-1,7-diazaspiro[4.4]nonan-6-one hydrochloride] |
| 2 | 25.1 | Cc1cnc([C@H]2CC[C@@]3(CCN(C)C3=O)N2)cc1-c1ccc(C(F)(F)F)cc1 [Example 41, (2R,5S)-7-Methyl-2-[5-methyl-4-[4-(trifluoromethyl)phenyl]-2-pyridyl]-1,7-diazaspiro[4.4]nonan-6-one hydrochloride] |
| 2 | 25.1 | Cc1cnc([C@H]2CC[C@]3(CCN(C)C3=O)N2)cc1-c1ccc(C(F)(F)F)cc1 [Example 42, (2R,5R)-7-Methyl-2-[5-methyl-4-[4-(trifluoromethyl)phenyl]-2-pyridyl]-1,7-diazaspiro[4.4]nonan-6-one hydrochloride] |
| 3.16 | 39.8 | Cc1cnc([C@@H]2CC[C@]3(CCN(C)C3=O)N2)cc1-c1ccc(C(F)(F)F)cc1 [Example 43, (2S,5R)-7-Methyl-2-[5-methyl-4-[4-(trifluoromethyl)phenyl]-2-pyridyl]-1,7-diazaspiro[4.4]nonan-6-one hydrochloride] |
| 10 | 50.1 | CC1(C)C[C@@]2(CC[C@@H](c3cc(-c4ccc(C(F)(F)F)cc4)ccn3)N2)C(=O)N1 [Example 44, (2S,5S)-8,8-Dimethyl-2-[4-[4-(trifluoromethyl)phenyl]-2-pyridyl]-1,7-diazaspiro[4.4]nonan-6-one hydrochloride] |
| 3.16 | 39.8 | CC1(C)C[C@@]2(CC[C@H](c3cc(-c4ccc(C(F)(F)F)cc4)ccn3)N2)C(=O)N1 [Example 45, (2R,5S)-8,8-Dimethyl-2-[4-[4-(trifluoromethyl)phenyl]-2-pyridyl]-1,7-diazaspiro[4.4]nonan-6-one hydrochloride] |
| 0.794 | 10 | CC1(C)C[C@]2(CC[C@H](c3cc(-c4ccc(C(F)(F)F)cc4)ccn3)N2)C(=O)N1 [Example 46, (2R,5R)-8,8-Dimethyl-2-[4-[4-(trifluoromethyl)phenyl]-2-pyridyl]-1,7-diazaspiro[4.4]nonan-6-one hydrochloride] |
